From patent US8859512B2, “Anti-viral pyrimidine nucleoside derivatives” (University College Cardiff Consultants Limited, priority 2006, dated 2014)
“And” between values parts separate entries of the source, which are not always exact repeats. Identical values can stand only once. “Also recorded” adds a separate entry of the source.

Legend:
[1] = Pilot oral pharmacokinetic study in female mice, plasma Compound 1 by HPLC with fluorescence detection; assay type: in vivo; details: single oral gavage 31.25 mg/kg vs Compound 1 25 mg/kg
[2] = system: thymidine-kinase deficient Oka VZV strain in HEL cells; experiment: Viral plaque formation reduction in HEL cells inoculated with VZV Oka strain; assay type: cell-based, Varicella Zoster virus; details: for antiviral activity (in words): in vitro

Row | Compound | plasma concentrations of Compound 1 compared to mice receiving Compound 1 (in words) [1] | EC50 ([2]; Human alphaherpesvirus 3, HEL, read-out: EC50 in VZV OKA) | antiviral activity (in words) [2]
1 | CCCCCc1ccc(-c2cc3cn(C4CC(O)C(COC(=O)C(N)C(C)C)O4)c(=O)nc3o2)cc1 (stereo not shown) [Compound 5] | much higher | 16 nM and 0.008 µg/mL | active; also recorded: comparable in vitro antiviral activity to Compound 1
2 | CCCCCc1ccc(-c2cc3cn(C4CC(O)C(COC(=O)C(N)C(C)C)O4)c(=O)nc3o2)cc1.Cl (stereo not shown) [Compound 6] | – | – | active
